Legend:
Assay type in all cases: cell-based
Jurkat (A3) cells [1] = experiment: DACM / annexin V AF594 / SYTOX green staining of nocodazole treated Jurkat cells
Method: Materials and Methods. Jurkat (A3) cells were grown in T flasks at 37° C. in a humidified air atmosphere with 5% CO2 in RPMI (Invitrogen, #61870) supplemented with 10% heat-inactivated fetal bovine serum (Invitrogen, #10108-165). In order of investigating the effect of an apoptosis-inducing drug on DACM staining, Jurkat cells were treated with nocodazole (0.5 μM) for 16 hours. Nocodazole treated and untreated control cells were harvested washed and stained with annexin V Alexa Fluor 594 (Invitrogen, #A13203) according to manufacturer's instructions. Then cells were stained with DACM (20 μg/mL) (N-(7-dimethylamino-4-methyl-3-coumarinyl)-maleimide, WAKO Pure Chemical Industries, CAS no. 55145-14-7) and the nonviable stain SYTOX green (0.3 μM) (Invitrogen, #S7020). Immediately after staining with DACM cells were loaded into a chamber slide. The cells were investigated using an Olympus IX50 fluorescence microscope, and images (40× magnification) of the Annexin V Alexa Fluor 594, DACM and SYTOX green stained cells were captured using a Lumenera CCD camera combined with the following filter cubes (Olympus); U-MWG2 (green long pass: 510-550 nm), U-MNUA2 (UV band pass, 330-385 nm) and U-MNIB3 (blue band pass: 470-495 nm). Cells were also investigated using an in-house developed fluorescence microscope system with 2× magnification.

S. pombe = experiment: DACM/PI staining of yeast, fluorescence microscopy; conditions: 8 μg/ml DACM, no incubation
Method: (§1) Materials and Methods. S. pombe strain Eg328, h^90 smt-0 ura4-D18, (ATCC 90720; Styrkarsdottir U et al. Curr. Genet. 23: 184-186, 1993) was grown in a rotary shaker at 29° C. to a density of 1×10^7 cells/ml in EMM minimal medium (Moreno et al., Methods Enzym. 194: 795-823, 1991) supplemented with 10 mM of L-uridine (Sigma, U3750). S. cerevisiae wild strain was cultivated in YPD medium (Qbiogene, #4001-032) at 29° C. to a density of 5×10^7 cells/ml. S. pombe and S. cerevisiae cells were directly stained with 8 μg/ml DACM (N-(7-dimethylamino-4-methyl-3-coumarinyl)-maleimide, WAKO Pure Chemical Industries, CAS no. 55145-14-7 dissolved in DMSO) and 10 μg/ml propidium iodide (Applichem, #A2261.9010) prior to mounting on a microscope slide. Note: after addition of DACM and PI the cells were immediately analysed for fluorescence (no incubation). Olympus IX50 and NucleoCounter® NC3000™ was used for microscopy, and images were captured using a Lumenera CCD camera and in-house developed software. Propidium iodide and DCAM fluorescence were detected using the U-MWG2 and U-MNUA2 filter cubes of the Olympus microscope and filterset 5 and 1 of the NucleoCounter® NC-3000™.

S. cerevisiae = experiment: DACM/PI staining of yeast, fluorescence microscopy; conditions: 8 μg/ml DACM, no incubation
Method: as §1

Jurkat (A3) cells [2] = experiment: DACM staining of exponentially growing versus starved Jurkat cells; conditions: viable cells (PI positive gated out); 2 days versus 10 days incubation
Method: Materials and Methods. Jurkat (A3) cells were grown in T flasks at 37° C. in a humidified air atmosphere with 5% CO2 in RPMI (Invitrogen, #61870) supplemented with 10% heat-inactivated fetal bovine serum (Invitrogen, #10108-165). To investigate the effect of cell starvation on DACM staining, exponentially proliferating cells from a newly split culture (2 days incubation) were investigated along with cells from a stationary culture (10 days incubation). 1.8 mL proliferating newly split Jurkat cells (cell density 3×10^5, 98% viable) were spun down and resuspended in 95 μL RPMI media and added 5 μL of a mixture of DACM (N-(7-dimethylamino-4-methyl-3-coumarinyl)-maleimide, WAKO Pure Chemical Industries, CAS no. 55145-14-7, 400 μg DACM pr. mL), acridine orange (1.2 μg/mL) and propidium iodide (500 μg/mL) and mixed by pipetting. Immediately after staining cells were loaded into a chamber slide. Images were captured using an in-house developed fluorescence microscope system with a Lumenera CCD camera (2× magnification) and were analysed using in-house developed software.

Jurkat (JM) cells = experiment: Staining of proliferating Jurkat cells with labelling agent and propidium iodide, fluorescence microscopy; conditions: 10 μL agent (100 μg pr. mL DMSO) added to 90 μL cells, only exception PI positive cells
Method: (§2) Materials and Methods. Jurkat (JM) cells were grown at 37° C. in a humidified air atmosphere with 5% CO2 in RPMI (Invitrogen, #61870) supplemented with 10% heat-inactivated fetal bovine serum (Invitrogen, #10108-165). 90 μL proliferating Jurkat cells (cell density 1.2×10^6, 99% viable determined using the NC-100 NucleoCounter system following the manufacturer's (ChemoMetec A/S) protocol) were added 10 μL NAM (N-(9-acridinyl)maleimide, Sigma, #01665, CAS no. 49759-20-8) dissolved in DMSO (100 μg NAM pr. mL DMSO) and mixed by pipetting. Cells were loaded into a NucleoCassette, containing the DNA stain propidium iodide (PI). The cells were investigated using an Olympus IX50 fluorescence microscope, and images were captured using a Lumenera CCD camera and in-house developed software. PI and NAM fluorescence were detected using, respectively, U-MWG2 (green long pass: 510-550 nm) and U-MNUA2 (UV band pass, 330-385 nm) filter cubes (Olympus).
as §2, with “1.0×10^6,” for “1.2×10^6,”, “(ChemoMetec)” for “(ChemoMetec A/S)”, “CPM (7-diethylamino-3-[4′-maleimidylphenyl]-4-methylcoumarin, Chemodex Ltd.,” for “NAM (N-(9-acridinyl)maleimide, Sigma, #01665,”, “76877-33-3)” for “49759-20-8)”, “CPM” for “NAM”
as §2, with “1.1×10^6, 98%” for “1.2×10^6, 99%”, “(ChemoMetec)” for “(ChemoMetec A/S)”, “PM (N-(1-Pyrenyl)maleimide, Sigma P7908” for “NAM (N-(9-acridinyl)maleimide, Sigma, #01665,”, “42189-56-0)” for “49759-20-8)”, “PM” for “NAM”, “Cells were loaded into a NucleoCassette, containing the DNA stain propidium iodide (PI).” left out
Materials and Methods. […] 90 μL proliferating Jurkat cells (cell density 1.1×10^6, 98% viable determined using the NC-100 NucleoCounter system following the manufacturer's (ChemoMetec) protocol) were added 10 μL CPI (7-diethylamino-3-((4′-(iodoacetyl)amino)phenyl)-4-methylcoumarin, Sigma 78264 CAS no. 76877-34-4) dissolved in DMSO (100 μg CPI pr. mL DMSO) and mixed by pipetting. […] The cells were investigated using an Olympus IX50 fluorescence microscope, and images were captured using a Lumenera CCD camera and in-house developed software. PI and CPI fluorescence were detected using, respectively, U-MWG2 (green long pass: 510-550 nm) and U-MNUA2 (UV band pass, 330-385 nm) filter cubes (Olympus). […]

Jurkat cells = experiment: JC-1 mitochondrial potential detection apoptosis assay; conditions: nocodazole treated Jurkat cells
Description: FIG. 22 The effect of the apoptotic drug nocodazole on the fluorescence intensity of stained Jurkat cells. 22A+22B) Fluorescence intensity of DACM stained untreated (22A) or nocodazole treated (22B) Jurkat cells. […] 22C+22D) Red vs. green fluorescence of JC-1 stained untreated (22C) and nocodazole treated (22D) Jurkat cells. The JC-1 stain is used for detecting apoptosis. JC-1 form red fluorescing aggregates in the mitochondria of healthy, non-apoptotic cells. In apoptotic cells JC-1 appears in its green monomeric, reduced form. […] This is in accordance with the results obtained using DACM to measure the thiol level; treatment with nocodazole causes a decrease in the fluorescence intensity of a subpopulation of cells.

Compound | DACM fluorescence intensity of viable, non-apoptotic cells (Jurkat (A3) cells [1]; DACM 20 μg/mL) | DACM fluorescence intensity of nonviable cells (Jurkat (A3) cells [1]; SYTOX green positive cells, DACM 20 μg/mL) | DACM fluorescence intensity of apoptotic cells (Jurkat (A3) cells [1]; annexin V positive cells, DACM 20 μg/mL) | staining of non-viable PI positive cells (S. pombe) | staining of viable PI negative cells (S. pombe) | staining of non-viable PI positive cells (S. cerevisiae) | staining of viable PI negative cells (S. cerevisiae) | DACM fluorescence intensity, healthy versus starved cells (Jurkat (A3) cells [2]) | staining of cells (UV filter) versus PI positive cells (Jurkat (JM) cells) | overall DACM fluorescence intensity (thiol level) of treated cells versus untreated (Jurkat (A3) cells [1]; nocodazole 0.5 μM for 16 hours) | induction of apoptosis (mitochondrial depolarisation, JC-1 red/green fluorescence) (Jurkat cells)
Cc1c(N2C(=O)C=CC2=O)c(=O)oc2cc(N(C)C)ccc12 [DACM, N-(7-dimethylamino-4-methyl-3-coumarinyl)-maleimide] | highest fluorescence intensity | low fluorescence intensity | low fluorescence intensity | stain very weakly with DACM | stain brightly with DACM | stain very weakly with DACM | stain brightly with DACM | higher for healthy (exponential growing) Jurkat cells than the starved Jurkat cells | nearly all cells were stained by DACM | – | –
COC(=O)Nc1nc2ccc(C(=O)c3cccs3)cc2[nH]1 [nocodazole] | – | – | – | – | – | – | – | – | – | lower than the overall fluorescence intensity of untreated Jurkat cells | induces apoptosis (measured as depolarisation) in a cell subpopulation

Source: patent US9128097B2, “Method and kit for assessing viable cells” (ChemoMetec A/S, priority 2008, dated 2015)
